{
  "source": "ChEMBL document CHEMBL1955804",
  "about": "“Peroxisome proliferator-activated receptors (PPARs) have multiple binding points that accommodate ligands in various conformations: phenylpropanoic acid-type PPAR ligands bind to PPAR in different conformations, depending on the subtype” (J Med Chem, 2012)",
  "type_in_all_cases": "functional",
  "key": {"[1]": {"target": "T1, Peroxisome proliferator-activated receptor alpha (Homo sapiens, UniProt Q07869)", "T1 sequence (Q07869 whole entry)": "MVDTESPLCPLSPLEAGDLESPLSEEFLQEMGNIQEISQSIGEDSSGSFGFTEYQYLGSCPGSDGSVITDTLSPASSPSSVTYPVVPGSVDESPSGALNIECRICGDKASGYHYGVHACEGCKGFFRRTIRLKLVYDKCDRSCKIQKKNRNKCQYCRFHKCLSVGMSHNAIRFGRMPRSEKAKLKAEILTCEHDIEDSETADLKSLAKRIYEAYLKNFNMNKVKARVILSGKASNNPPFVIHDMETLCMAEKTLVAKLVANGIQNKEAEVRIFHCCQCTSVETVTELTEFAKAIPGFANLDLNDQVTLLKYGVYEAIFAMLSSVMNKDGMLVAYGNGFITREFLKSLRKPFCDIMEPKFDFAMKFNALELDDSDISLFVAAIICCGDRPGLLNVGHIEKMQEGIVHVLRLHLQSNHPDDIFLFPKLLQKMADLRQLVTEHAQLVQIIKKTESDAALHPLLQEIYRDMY", "experiment": "Agonist activity at human PPARalpha assessed as transactivation activity; call rule not given here"}, "[2]": {"target": "T2, Peroxisome proliferator-activated receptor delta (Homo sapiens, UniProt Q03181)", "T2 sequence (Q03181 whole entry)": "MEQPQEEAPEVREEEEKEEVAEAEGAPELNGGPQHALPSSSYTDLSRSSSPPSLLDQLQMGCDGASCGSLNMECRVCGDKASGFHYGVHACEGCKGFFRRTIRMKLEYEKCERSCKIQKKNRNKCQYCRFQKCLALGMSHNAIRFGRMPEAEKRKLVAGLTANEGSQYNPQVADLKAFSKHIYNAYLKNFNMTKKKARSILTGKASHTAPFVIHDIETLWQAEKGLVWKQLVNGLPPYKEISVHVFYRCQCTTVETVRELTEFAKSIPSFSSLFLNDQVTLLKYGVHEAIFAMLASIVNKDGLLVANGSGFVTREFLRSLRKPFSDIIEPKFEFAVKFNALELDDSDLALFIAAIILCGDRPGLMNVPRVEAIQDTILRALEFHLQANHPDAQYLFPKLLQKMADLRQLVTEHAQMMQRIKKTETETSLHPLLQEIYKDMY", "experiment": "Agonist activity at human PPARdelta assessed as transactivation activity"}, "[3]": {"target": "T3, Peroxisome proliferator-activated receptor gamma (Homo sapiens, UniProt P37231)", "T3 sequence (P37231 whole entry)": "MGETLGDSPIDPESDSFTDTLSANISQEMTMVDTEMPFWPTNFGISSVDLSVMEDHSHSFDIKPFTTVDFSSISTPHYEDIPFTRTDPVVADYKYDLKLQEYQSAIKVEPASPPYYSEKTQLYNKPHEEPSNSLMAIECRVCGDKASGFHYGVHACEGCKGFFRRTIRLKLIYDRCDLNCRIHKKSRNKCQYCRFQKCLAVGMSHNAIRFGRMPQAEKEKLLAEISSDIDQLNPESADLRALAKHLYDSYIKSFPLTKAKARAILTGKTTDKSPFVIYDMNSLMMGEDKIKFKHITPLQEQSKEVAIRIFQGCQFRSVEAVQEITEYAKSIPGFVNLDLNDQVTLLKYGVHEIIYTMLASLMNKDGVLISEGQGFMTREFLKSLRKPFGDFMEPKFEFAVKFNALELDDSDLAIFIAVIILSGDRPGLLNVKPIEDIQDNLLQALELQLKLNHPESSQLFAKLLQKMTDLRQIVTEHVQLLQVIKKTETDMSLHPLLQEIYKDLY", "experiment": "Agonist activity at N-terminal His-tagged human PPARgamma expressed in Escherichia coli BL21 assessed as transactivation activity"}},
  "data": [
    {"smiles": "CC[C@@H](Cc1ccc(OC)c(CNC(=O)c2ccc3ccc4cccc5ccc2c3c45)c1)C(=O)O", "values": [
      {"measurement": "EC50", "setting": "[1]", "result": 12, "unit": "nM"},
      {"measurement": "EC50", "setting": "[2]", "result": 43, "unit": "nM"},
      {"measurement": "EC50", "setting": "[3]", "result": "Not Active"}
    ]}
  ]
}
